Source: ChEMBL document CHEMBL5038629, “Light-Triggered Fluorescence Self-Reporting Nitric Oxide Release from Coumarin Analogues for Accelerating Wound Healing and Synergistic Antimicrobial Applications” (J Med Chem, 2022)
Activity calls are given as the source filed them. No cut-off for these calls is given here.

Legend:
L02 [1] = experiment: NO releasing activity in human L02 cells assessed as increase in red fluorescence intensity at 10 uM upon exposure to UV light irradiation for 10s by DAQ probe based fluorescence analysis; assay type: ADME, cell-based; settings: l02, 10 s
[2] = NO releasing activity assessed as NO release efficiency at 80 uM by Griess assay relative to NaNO2; assay type: functional
L02 [3] = experiment: Cytotoxicity against human L02 cells assessed as reduction in cell viability upto 60 uM measured after 8 hrs by CCK8 assay; assay type: functional, cell-based; settings: dose microM <=60, time 8.0 hrs
[4] = NO releasing activity in CAN solvent upon exposure to UV light irradiation by fluorescence based analysis; assay type: functional
Staphylococcus aureus [5] = experiment: Inhibition of biofilm formation in methicillin-resistant Staphylococcus aureus assessed as increase in planktonic bacteria at 10 uM upon exposure to UV light irradiation and measured after 48 hrs by NB plate based imaging analysis; assay type: functional, organism-based
HUVEC [6] = experiment: Cytotoxicity against human HUVEC cells assessed as reduction in cell viability upto 60 uM measured after 8 hrs by CCK8 assay; assay type: functional, cell-based; settings: dose microM <=60, time 8.0 hrs
[7] = Photolysis of compound in DMSO/PBS assessed as 4-methyl-7-(2-nitrobenzylamino)-2H-chromen-2-one and AMC formation along with NO release upon exposure to UV light by mass spectrometry; assay type: functional
[8] = NO releasing activity in Diox-solvent upon exposure to UV light irradiation by fluorescence based analysis; assay type: functional
[9] = Photolysis of compound in DMSO/PBS assessed as 4-methyl-7-(2-nitrobenzylamino)-2H-chromen-2-one and AMC formation along with NO release upon exposure to UV light and measured after 30 mins by HPLC analysis; assay type: functional
Staphylococcus aureus [10] = experiment: Inhibition of biofilm formation in methicillin-resistant Staphylococcus aureus assessed as biofilm dispersal effect at 10 uM incubated for 5 hrs followed by exposure to UV light irradiation for 1 min in presence of levofloxacin by crystal violet staining based analysis; assay type: functional; parameters: scale not given: the % may be the effect or the level left; settings: time 301 min, 5.017 h
[11] = NO releasing activity in MeOH solvent upon exposure to UV light irradiation by fluorescence based analysis; assay type: functional
[12] = NO releasing activity assessed as NO release efficiency at 40 uM by Griess assay relative to NaNO2; assay type: functional
[13] = NO releasing activity upon exposure to UV light irradiation in presence of Trp by fluorescence based analysis; assay type: functional
[14] = NO releasing activity upon exposure to UV light irradiation in presence of His by fluorescence based analysis; assay type: functional
RAW264.7 [15] = experiment: Cytotoxicity against mouse RAW264.7 cells assessed as reduction in cell viability upto 60 uM measured after 8 hrs by CCK8 assay; assay type: functional, cell-based; settings: dose microM <=60, time 8.0 hrs
[16] = NO releasing activity assessed as increase in fluorescence intensity upon exposure to UV light at 0 to 18 uM by fluorescence based analysis; assay type: functional; settings: dose 0-18 µM
[17] = NO releasing activity upon exposure to UV light irradiation in presence of Arg by fluorescence based analysis; assay type: functional
Staphylococcus aureus [18] = experiment: Inhibition of biofilm formation in methicillin-resistant Staphylococcus aureus assessed as increase in planktonic bacteria at 10 uM upon exposure to UV light irradiation and measured after 48 hrs in presence of levofloxacin by NB plate based imaging analysis; assay type: functional; parameters: scale not given: the % may be the effect or the level left
[19] = NO releasing activity upon exposure to UV light irradiation at powers from 3 to 15 mW/cm2 by fluorescence based analysis; assay type: functional
HUVEC [20] = experiment: Induction of angiogenesis in human HUVEC cells assessed as increase in cell proliferation upto 60 uM upon exposure to UV light irradiation and measured after 8 hrs by CCK8 assay; assay type: functional, cell-based; settings: dose microM <=60, time 8.0 hrs
HUVEC [21] = experiment: Induction of angiogenesis in human HUVEC cells assessed as increase in cell migration rate upon UV light irradiation and measured after 12 to 24 hrs by cell scratch test; assay type: functional, cell-based; settings: time 12-24 hrs
[22] = NO releasing activity in DMSO solvent upon exposure to UV light irradiation by fluorescence based analysis; assay type: functional
RAW264.7 [23] = experiment: Induction of angiogenesis in mouse RAW264.7 cells assessed as increase in cell proliferation upto 60 uM upon exposure to UV light irradiation and measured after 8 hrs by CCK8 assay; assay type: functional, cell-based; settings: dose microM <=60, time 8.0 hrs
Mus musculus [24] = experiment: Acceleration of wound healing in methicillin-resistant Staphylococcus aureus infected CD1 mouse assessed as increase in wound healing rate using UV light-irradiated compound at 10 uM, sc on days 0, 3, 7 and 14 in presence of 10 uM levofloxacin; assay type: functional, organism-based; settings: time 15.0 day
L02 [25] = experiment: Induction of angiogenesis in human L02 cells assessed as increase in cell proliferation upto 60 uM upon exposure to UV light irradiation and measured after 8 hrs by CCK8 assay; assay type: functional, cell-based; settings: dose microM <=60, time 8.0 hrs
[26] = NO releasing activity upon exposure to UV light irradiation in presence of Ala by fluorescence based analysis; assay type: functional
[27] = NO releasing activity assessed as NO release efficiency at 60 uM by Griess assay relative to NaNO2; assay type: functional
[28] = NO releasing activity in IPA solvent upon exposure to UV light irradiation by fluorescence based analysis; assay type: functional
[29] = NO releasing activity upon exposure to UV light irradiation in presence of GSH by fluorescence based analysis; assay type: functional
[30] = Stability of the compound in human L02 cells at 10 uM by DAQ probe based fluorescence analysis; assay type: ADME, cell-based; settings: l02, 10 µM
Staphylococcus aureus [31] = experiment: Inhibition of biofilm formation in methicillin-resistant Staphylococcus aureus assessed as decrease in biofilm mass at 10 uM upon exposure to UV light irradiation and measured after 48 hrs by dilution plate coating method; assay type: functional; settings: light or radiation study
HUVEC [32] = experiment: Induction of angiogenesis in human HUVEC cells assessed as increase in tube formation upon exposure to UV light irradiation measured after 24 hrs; assay type: functional, cell-based
[33] = NO releasing activity upon exposure to UV light irradiation in presence of HClO by fluorescence based analysis; assay type: functional
Mus musculus [34] = experiment: Induction of angiogenesis in methicillin-resistant Staphylococcus aureus infected CD1 mouse assessed as increase in CD31 surface expression in skin by measuring increase in green fluorescence intensity using UV light-irradiated compound at 10 uM, sc on days 0, 3, 7 and 14 in presence of levofloxacin and measured on day 14 by immunofluorescence staining based analysis; assay type: functional, organism-based; settings: time 15.0 day
[35] = NO releasing activity upon exposure to UV light irradiation in presence of Asp by fluorescence based analysis; assay type: functional
[36] = NO releasing activity assessed as NO release efficiency at 10 uM by Griess assay relative to NaNO2; assay type: functional
Staphylococcus aureus [37] = experiment: Inhibition of biofilm formation in methicillin-resistant Staphylococcus aureus assessed as biofilm dispersal effect at 10 uM incubated for 5 hrs followed by exposure to UV light irradiation for 1 min by crystal violet staining based analysis; assay type: functional; parameters: scale not given: the % may be the effect or the level left; settings: time 301 min, 5.017 h
[38] = NO releasing activity at 100 uM upon exposure to UV light irradiation by DAF-2 probe based fluorescence analysis; assay type: functional
[39] = NO releasing activity upon exposure to UV light irradiation at pH 4 to 8 by fluorescence based analysis; assay type: functional
[40] = Stability of the compound in human HepG2 cells at 10 uM by DAQ probe based fluorescence analysis; assay type: ADME, cell-based; settings: hepg2, 10 µM
[41] = NO releasing activity in PBS buffer of 20% DMSO at 20 uM upon exposure to UV light irradiation by amperometric method; assay type: functional
Staphylococcus aureus [42] = experiment: Antibacterial activity against methicillin-resisitant Staphylococcus aureus assessed as wrinkled bacterial membrane formation at 10 uM incubated for 5 hrs followed by exposure to UV light irradiation for 1 min in presence of levofloxacin by scanning electron microscopy; assay type: functional, organism-based; settings: time 301.0 min
[43] = NO releasing activity upon exposure to UV light irradiation in presence of […] by fluorescence based analysis; assay type: functional
[44] = NO releasing activity upon exposure to UV light irradiation at 50 to 70 degC measured after 4 to 8 hrs by fluorescence based analysis; assay type: functional; settings: time 4-8 hrs
[45] = Toxicity in methicillin-resistant Staphylococcus aureus-infected CD1 mouse assessed as change in body weight using UV light-irradiated compound at 10 uM, sc on days 0, 3, 7 and 14; assay type: organism-based; settings: in vivo, 360 h, time 15 day
HepG2 = experiment: NO releasing activity in human HepG2 cells assessed as increase in red fluorescence intensity at 10 uM upon exposure to UV light irradiation for 10s by DAQ probe based fluorescence analysis; assay type: ADME, cell-based; settings: hepg2, 10 s
[46] = NO releasing activity upon exposure to UV light irradiation in presence of NaSO4 by fluorescence based analysis; assay type: functional
[47] = NO releasing activity in Tol solvent upon exposure to UV light irradiation by fluorescence based analysis; assay type: functional
[48] = NO releasing activity assessed as increase in fluorescence intensity at 420 nm upon exposure to UV light measured after 0 to 5 mins by fluorescence based analysis; assay type: functional; settings: time 0-5 min
Staphylococcus aureus [49] = experiment: Inhibition of biofilm formation in methicillin-resistant Staphylococcus aureus assessed as decrease in biofilm mass at 10 uM upon exposure to UV light irradiation and measured after 48 hrs in presence of levofloxacin by dilution plate coating method; assay type: functional; settings: light or radiation study
[50] = NO releasing activity upon exposure to UV light irradiation in presence of Phe by fluorescence based analysis; assay type: functional
[51] = NO releasing activity upon exposure to UV light irradiation in presence of Ser by fluorescence based analysis; assay type: functional
[52] = NO releasing activity upon exposure to UV light irradiation in presence of Hcy by fluorescence based analysis; assay type: functional
[53] = NO releasing activity in TCM solvent upon exposure to UV light irradiation by fluorescence based analysis; assay type: functional
[54] = NO releasing activity in EA solvent upon exposure to UV light irradiation by fluorescence based analysis; assay type: functional
[55] = NO releasing activity upon exposure to UV light irradiation in presence of Na2S by fluorescence based analysis; assay type: functional
[56] = NO releasing activity assessed as increase in fluorescence intensity upon exposure to UV light at 1 to 10 uM measured after 30 mins by fluorescence based analysis; assay type: functional; settings: dose 1-10 µM
Mus musculus [57] = experiment: Acceleration of wound healing in methicillin-resistant Staphylococcus aureus infected CD1 mouse assessed as boosted collagen deposition and granulation tissue in skin using UV light-irradiated compound at 10 uM, sc on days 0, 3, 7 and 14 and measured on day 14 by H and E staining based analysis; assay type: functional, organism-based; settings: time 15.0 day
[58] = NO releasing activity assessed as NO release efficiency at 20 uM by Griess assay relative to NaNO2; assay type: functional
[59] = NO releasing activity upon exposure to UV light irradiation in presence of Cys by fluorescence based analysis; assay type: functional
Mus musculus [60] = experiment: Acceleration of wound healing in methicillin-resistant Staphylococcus aureus infected CD1 mouse assessed as boosted collagen deposition and granulation tissue in skin using UV light-irradiated compound at 10 uM, sc on days 0, 3, 7 and 14 in presence of levofloxacin and measured on day 14 by H and E staining based analysis; assay type: functional, organism-based; settings: time 15.0 day
[61] = NO releasing activity assessed as NO release efficiency at 100 uM by Griess assay relative to NaNO2; assay type: functional
[62] = NO releasing activity at 20 uM upon exposure to UV light irradiation for 5 mins by EPR spectroscopy; assay type: functional
[63] = NO releasing activity in DMK solvent upon exposure to UV light irradiation by fluorescence based analysis; assay type: functional

## Cc1cc(=O)oc2cc(N(Cc3ccccc3[N+](=O)[O-])N=O)ccc12
L02 [1]
  Drug metabolism: Metabolite_Detected
[2]
  Drug metabolism: 97.6%
L02 [3]
  Activity: Active
[4]
  Drug metabolism: Metabolite detected
Staphylococcus aureus [5]
  Activity: Active
HUVEC [6]
  Activity: Active
[7]
  Drug metabolism: Metabolite detected
[8]
  Drug metabolism: Metabolite detected
[9]
  Drug metabolism: Metabolite detected
Staphylococcus aureus [10]
  Activity: 74%
[11]
  Drug metabolism: Metabolite detected
[12]
  Drug metabolism: 98.6%
[13]
  Drug metabolism: Metabolite detected
[14]
  Drug metabolism: Metabolite detected
RAW264.7 [15]
  Activity: Active
[16]
  Drug metabolism: Metabolite detected
[17]
  Drug metabolism: Metabolite detected
Staphylococcus aureus [18]
  Activity: 160%
[19]
  Drug metabolism: Metabolite detected
HUVEC [20]
  Activity: Active
HUVEC [21]
  Activity: Active
[22]
  Drug metabolism: Metabolite detected
RAW264.7 [23]
  Activity: Active
Mus musculus [24]
  Activity: Active
L02 [25]
  Activity: Active
[26]
  Drug metabolism: Metabolite detected
[27]
  Drug metabolism: 96.9%
[28]
  Drug metabolism: Metabolite detected
[29]
  Drug metabolism: Metabolite detected
[30]
  Stability: Stable
Staphylococcus aureus [31]
  inhibition at 10 µM: 28%
HUVEC [32]
  Activity: Active
[33]
  Drug metabolism: Metabolite detected
Mus musculus [34]
  Activity: Active
[35]
  Drug metabolism: Metabolite detected
[36]
  Drug metabolism: 99%
Staphylococcus aureus [37]
  Activity: 15%
[38]
  Drug metabolism: Metabolite detected
[39]
  Drug metabolism: Metabolite detected
[40]
  Stability: Stable
[41]
  Drug metabolism: Metabolite detected
Staphylococcus aureus [42]
  Activity: Active
[43]
  Drug metabolism: Metabolite detected
[44]
  Drug metabolism: Metabolite detected
[45]
  Activity: Non-Toxic
HepG2
  Drug metabolism: Metabolite_Detected
[46]
  Drug metabolism: Metabolite detected
[47]
  Drug metabolism: Metabolite detected
[48]
  Drug metabolism: Metabolite detected
Staphylococcus aureus [49]
  inhibition at 10 µM: 54%
[50]
  Drug metabolism: Metabolite detected
[51]
  Drug metabolism: Metabolite detected
[52]
  Drug metabolism: Metabolite detected
[53]
  Drug metabolism: Metabolite detected
[54]
  Drug metabolism: Metabolite detected
[55]
  Drug metabolism: Metabolite detected
[56]
  Drug metabolism: Metabolite detected
Mus musculus [57]
  Activity: Active
[58]
  Drug metabolism: 99.2%
[59]
  Drug metabolism: Metabolite detected
Mus musculus [60]
  Activity: Active
[61]
  Drug metabolism: 93%
[62]
  Drug metabolism: Metabolite detected
[63]
  Drug metabolism: Metabolite detected
